# Test results as given in PMC5218480 (PLoS ONE, 2017).
# Tested on: MV-4-11 cells
# Assay: Gene expression microarray analysis (Affymetrix PrimeView) and GSEA
# Type: cell-based, human
# Set-up: RFU PODN (11730768_x_at) / Fold change /veh PODN (11730768_x_at) / RFU LINC00158 (11744669_a_at) / Fold change /veh LINC00158 (11744669_a_at) / RFU DUSP10 (11751237_a_at) / Fold change /veh DUSP10 (11751237_a_at) / RFU ID3 (11757404_x_at) / Fold change /veh ID3 (11757404_x_at) / RFU PLEKHG5 (11737974_s_at) / Fold change /veh PLEKHG5 (11737974_s_at) / RFU LRRC4B (11730491_at) / Fold change /veh LRRC4B (11730491_at) / RFU GIMAP4 (11747438_a_at) / Fold change /veh GIMAP4 (11747438_a_at) / RFU KRT8 (11758183_x_at) / Fold change /veh KRT8 (11758183_x_at) / RFU CNN1 (11734310_a_at) / Fold change /veh CNN1 (11734310_a_at) / RFU VPS37D (11726825_at) / Fold change /veh VPS37D (11726825_at) / RFU C10orf10 (11716522_x_at) / Fold change /veh C10orf10 (11716522_x_at) / RFU KIR2DL2 /// KIR2DL4 /// KIR2DL5A /// KIR2DL5B /// KIR2DS1 /// KIR2DS2 /// KIR2DS3 /// KIR2DS4 /// KIR3DL3 /// KIR3DL3 /// KIR3DS1 (11738374_at) / Fold change /veh KIR2DL2 /// KIR2DL4 /// KIR2DL5A /// KIR2DL5B /// KIR2DS1 /// KIR2DS2 /// KIR2DS3 /// KIR2DS4 /// KIR3DL3 /// KIR3DL3 /// KIR3DS1 (11738374_at) / RFU C1QL1 (11718748_at) / Fold change /veh C1QL1 (11718748_at) / RFU TMPRSS4 (11747572_a_at) / Fold change /veh TMPRSS4 (11747572_a_at) / RFU HAMP (11756126_x_at) / Fold change /veh HAMP (11756126_x_at) / RFU RNFT2 (11725882_a_at) / Fold change /veh RNFT2 (11725882_a_at) / RFU NR4A2 (11747474_a_at) / Fold change /veh NR4A2 (11747474_a_at) / RFU ABCC12 (11746883_a_at) / Fold change /veh ABCC12 (11746883_a_at) / RFU TMEM136 (11760407_x_at) / Fold change /veh TMEM136 (11760407_x_at) / RFU CLDN22 /// WWC2 (11732394_at) / Fold change /veh CLDN22 /// WWC2 (11732394_at) / RFU HLA-DPB1 (11760878_x_at) / Fold change /veh HLA-DPB1 (11760878_x_at) / RFU SPINT1 (11716480_a_at) / Fold change /veh SPINT1 (11716480_a_at) / RFU GAP43 (11754022_s_at) / Fold change /veh GAP43 (11754022_s_at) / RFU A4GNT (11735810_at) / Fold change /veh A4GNT (11735810_at) / RFU PRB3 (11715151_x_at) / Fold change /veh PRB3 (11715151_x_at) / RFU TUBB4B (11761932_at) / Fold change /veh TUBB4B (11761932_at) / RFU CAPN14 (11732068_a_at) / Fold change /veh CAPN14 (11732068_a_at) / RFU TMCC2 (11721928_a_at) / Fold change /veh TMCC2 (11721928_a_at) / RFU IRGQ (11745062_a_at) / Fold change /veh IRGQ (11745062_a_at) / RFU FAM174B (11720279_a_at) / Fold change /veh FAM174B (11720279_a_at) / RFU TMPRSS4 (11748680_a_at) / Fold change /veh TMPRSS4 (11748680_a_at) / RFU FAM212B (11763350_a_at) / Fold change /veh FAM212B (11763350_a_at) / RFU PLEKHG5 (11743358_a_at) / Fold change /veh PLEKHG5 (11743358_a_at) / RFU ZSCAN30 (11745921_a_at) / Fold change /veh ZSCAN30 (11745921_a_at) / RFU CMKLR1 (11741424_a_at) / Fold change /veh CMKLR1 (11741424_a_at) / RFU LOC101060620 /// MAPK8IP1 (11723275_at) / Fold change /veh LOC101060620 /// MAPK8IP1 (11723275_at) / RFU SPTSSB (11747773_x_at) / Fold change /veh SPTSSB (11747773_x_at) / RFU PRSS12 (11739890_at) / Fold change /veh PRSS12 (11739890_at) / RFU BIN1 (11741810_x_at) / Fold change /veh BIN1 (11741810_x_at) / RFU WNT11 (11732464_a_at) / Fold change /veh WNT11 (11732464_a_at) / RFU C10orf10 (11716521_a_at) / Fold change /veh C10orf10 (11716521_a_at) / RFU C5orf56 (11738089_at) / Fold change /veh C5orf56 (11738089_at) / RFU CYB561 (11721691_x_at) / Fold change /veh CYB561 (11721691_x_at) / RFU ANKRD19P (11752326_a_at) / Fold change /veh ANKRD19P (11752326_a_at) / RFU OR2T12 /// OR2T33 /// OR2T8 (11738714_s_at) / Fold change /veh OR2T12 /// OR2T33 /// OR2T8 (11738714_s_at) / RFU VCAN (11748164_a_at) / Fold change /veh VCAN (11748164_a_at) / RFU JSRP1 (11732532_at) / Fold change /veh JSRP1 (11732532_at) / RFU KRTAP10-11 (11738290_x_at) / Fold change /veh KRTAP10-11 (11738290_x_at) / RFU MYO3A (11730013_a_at) / Fold change /veh MYO3A (11730013_a_at) / RFU EBF3 (11725865_a_at) / Fold change /veh EBF3 (11725865_a_at) / RFU CAMK2N1 (11719241_x_at) / Fold change /veh CAMK2N1 (11719241_x_at) / RFU C5orf56 (11738088_a_at) / Fold change /veh C5orf56 (11738088_a_at) / RFU OLFML3 (11715873_a_at) / Fold change /veh OLFML3 (11715873_a_at) / RFU LOC100653217 /// NTM (11731650_a_at) / Fold change /veh LOC100653217 /// NTM (11731650_a_at) / RFU MAPK11 (11762145_a_at) / Fold change /veh MAPK11 (11762145_a_at) / RFU FIZ1 (11724087_x_at) / Fold change /veh FIZ1 (11724087_x_at) / RFU OASL (11726364_x_at) / Fold change /veh OASL (11726364_x_at) / RFU SOX15 (11748057_x_at) / Fold change /veh SOX15 (11748057_x_at) / RFU CD79A (11719716_a_at) / Fold change /veh CD79A (11719716_a_at) / RFU HIST1H1D (11736915_at) / Fold change /veh HIST1H1D (11736915_at) / RFU CASKIN2 (11723855_a_at) / Fold change /veh CASKIN2 (11723855_a_at) / RFU LOC730098 (11760151_x_at) / Fold change /veh LOC730098 (11760151_x_at) / RFU OR4N2 (11742367_at) / Fold change /veh OR4N2 (11742367_at) / RFU PRRT2 (11749266_a_at) / Fold change /veh PRRT2 (11749266_a_at) / RFU SNX32 (11753110_a_at) / Fold change /veh SNX32 (11753110_a_at) / RFU CDHR5 (11726645_a_at) / Fold change /veh CDHR5 (11726645_a_at) / RFU RCAN1 (11760418_a_at) / Fold change /veh RCAN1 (11760418_a_at) / RFU FAM167A (11723789_a_at) / Fold change /veh FAM167A (11723789_a_at) / RFU FAM26E (11764081_at) / Fold change /veh FAM26E (11764081_at) / RFU ISYNA1 (11749810_s_at) / Fold change /veh ISYNA1 (11749810_s_at) / RFU ACY1 (11761880_at) / Fold change /veh ACY1 (11761880_at) / RFU 11764098_at / Fold change /veh 11764098_at / RFU SAMD14 (11745864_x_at) / Fold change /veh SAMD14 (11745864_x_at) / RFU NPB (11741838_a_at) / Fold change /veh NPB (11741838_a_at) / RFU TMPRSS6 (11731388_a_at) / Fold change /veh TMPRSS6 (11731388_a_at) / RFU KRTAP10-2 (11738614_at) / Fold change /veh KRTAP10-2 (11738614_at) / RFU ARHGAP8 /// PRR5-ARHGAP8 (11727945_x_at) / Fold change /veh ARHGAP8 /// PRR5-ARHGAP8 (11727945_x_at) / RFU KRTAP5-7 /// NADSYN1 (11734609_at) / Fold change /veh KRTAP5-7 /// NADSYN1 (11734609_at) / RFU RASL12 (11751679_a_at) / Fold change /veh RASL12 (11751679_a_at) / RFU CDKN2B (11736163_a_at) / Fold change /veh CDKN2B (11736163_a_at) / RFU PRF1 (11729649_at) / Fold change /veh PRF1 (11729649_at) / RFU, ZNF638 /// ZNF638-IT1 / Fold change vs veh, ZNF638 /// ZNF638-IT1 / RFU, PANK3 / Fold change vs veh, PANK3 / RFU, SH3YL1 / Fold change vs veh, SH3YL1 / RFU, ZEB2 / Fold change vs veh, ZEB2 / RFU, NRIP1 / Fold change vs veh, NRIP1 / RFU, PTTG1IP / Fold change vs veh, PTTG1IP / RFU, CAPN2 / Fold change vs veh, CAPN2 / RFU, MED14 / Fold change vs veh, MED14 / RFU, SNORA58 / Fold change vs veh, SNORA58 / RFU, C1orf63 / Fold change vs veh, C1orf63 / RFU, LRRFIP1 / Fold change vs veh, LRRFIP1 / RFU, NDUFAF7 / Fold change vs veh, NDUFAF7 / RFU, SLC12A2 / Fold change vs veh, SLC12A2 / RFU, IBTK / Fold change vs veh, IBTK / RFU, ESF1 / Fold change vs veh, ESF1 / Fold change vs veh, TMEM50B / RFU, TAOK1 / Fold change vs veh, TAOK1 / RFU, ACBD3 / Fold change vs veh, ACBD3 / RFU, TMA16 / Fold change vs veh, TMA16 / RFU, RWDD3 / Fold change vs veh, RWDD3 / RFU, BCAT1 / Fold change vs veh, BCAT1 / RFU, EDEM3 / Fold change vs veh, EDEM3 / RFU, TMEM33 / Fold change vs veh, TMEM33 / RFU, WDR75 / Fold change vs veh, WDR75 / RFU, AHCTF1 / Fold change vs veh, AHCTF1 / RFU, TFRC / Fold change vs veh, TFRC / RFU, ZDHHC17 / Fold change vs veh, ZDHHC17 / RFU, NOM1 / Fold change vs veh, NOM1 / RFU, ARL8B / Fold change vs veh, ARL8B / RFU, ZBTB11 / Fold change vs veh, ZBTB11 / RFU, TAMM41 / Fold change vs veh, TAMM41 / RFU, KIAA1704 /// LOC100996395 / Fold change vs veh, KIAA1704 /// LOC100996395 / RFU, ING1 / Fold change vs veh, ING1 / RFU, TRMT61B / Fold change vs veh, TRMT61B / RFU, FUBP3 / Fold change vs veh, FUBP3 / RFU, TP53 / Fold change vs veh, TP53 / RFU, TNKS2 / Fold change vs veh, TNKS2 / RFU, ZFP14 / Fold change vs veh, ZFP14 / RFU, ACTR2 / Fold change vs veh, ACTR2 / RFU, PPP3R1 / Fold change vs veh, PPP3R1 / RFU, PIK3R1 / Fold change vs veh, PIK3R1 / RFU, HNRNPA1 / Fold change vs veh, HNRNPA1 / RFU, RNF170 / Fold change vs veh, RNF170 / RFU, ZNF28 / Fold change vs veh, ZNF28 / RFU, RNGTT / Fold change vs veh, RNGTT / RFU, OGT / Fold change vs veh, OGT / RFU, BRD1 / Fold change vs veh, BRD1 / RFU, MARS / Fold change vs veh, MARS / RFU, ZNF655 / Fold change vs veh, ZNF655 / RFU, FAHD1 / Fold change vs veh, FAHD1 / RFU, BDP1 / Fold change vs veh, BDP1 / RFU, LRRCC1 / Fold change vs veh, LRRCC1 / RFU, ARID1A / Fold change vs veh, ARID1A / RFU, ZNF146 / Fold change vs veh, ZNF146 / RFU, ZNF330 / Fold change vs veh, ZNF330 / RFU, GPN3 / Fold change vs veh, GPN3 / RFU, C9orf123 / Fold change vs veh, C9orf123 / RFU, N4BP2L2 / Fold change vs veh, N4BP2L2 / RFU, ARFIP1 / Fold change vs veh, ARFIP1 / RFU, FAM179B / Fold change vs veh, FAM179B / RFU, BCL10 / Fold change vs veh, BCL10 / RFU, UHRF1BP1L / Fold change vs veh, UHRF1BP1L / RFU, BET1 / Fold change vs veh, BET1 / RFU, CNOT2 / Fold change vs veh, CNOT2 / RFU, ZNF268 / Fold change vs veh, ZNF268 / Fold change vs veh, ZNF507 / RFU, DGCR2 / Fold change vs veh, DGCR2 / RFU, WDSUB1 / Fold change vs veh, WDSUB1 / Fold change vs veh, HSP90B1 /// MIR3652 / RFU, ADSS / Fold change vs veh, ADSS / RFU, GK / Fold change vs veh, GK / RFU, ZNF148 / Fold change vs veh, ZNF148 / RFU, TAF9 / Fold change vs veh, TAF9 / RFU, SLC1A5 / Fold change vs veh, SLC1A5 / RFU, SLMO2 / Fold change vs veh, SLMO2 / RFU, ABCC4 / Fold change vs veh, ABCC4 / RFU, LOC101060439 /// RAP1B / Fold change vs veh, LOC101060439 /// RAP1B / RFU, RFX7 / Fold change vs veh, RFX7 / RFU, GTPBP10 / Fold change vs veh, GTPBP10 / RFU, CNEP1R1 / Fold change vs veh, CNEP1R1 / RFU, BIVM-ERCC5 /// ERCC5 / Fold change vs veh, BIVM-ERCC5 /// ERCC5 / RFU, ILF3 / Fold change vs veh, ILF3 / RFU 11762660_at / Fold change /veh 11762660_at / RFU VCAN (11757783_s_at) / Fold change /veh VCAN (11757783_s_at) / RFU DDX43 (11728927_at) / Fold change /veh DDX43 (11728927_at) / RFU KRT8 (11758188_x_at) / Fold change /veh KRT8 (11758188_x_at) / RFU NKD1 (11759106_at) / Fold change /veh NKD1 (11759106_at) / RFU SRD5A1 (11742802_a_at) / Fold change /veh SRD5A1 (11742802_a_at) / RFU TPSAB1 /// TPSB2 (11721975_s_at) / Fold change /veh TPSAB1 /// TPSB2 (11721975_s_at) / RFU GSTM3 (11746129_a_at) / Fold change /veh GSTM3 (11746129_a_at) / RFU IL23R (11737362_x_at) / Fold change /veh IL23R (11737362_x_at) / RFU TMEM51 (11727254_a_at) / Fold change /veh TMEM51 (11727254_a_at) / RFU PIWIL2 (11732686_x_at) / Fold change /veh PIWIL2 (11732686_x_at) / RFU ORM1 (11744905_x_at) / Fold change /veh ORM1 (11744905_x_at) / RFU CCDC152 (11743942_at) / Fold change /veh CCDC152 (11743942_at) / RFU ECM1 (11717891_a_at) / Fold change /veh ECM1 (11717891_a_at) / RFU IL23R (11748794_a_at) / Fold change /veh IL23R (11748794_a_at) / RFU TNFAIP8L3 (11732012_x_at) / Fold change /veh TNFAIP8L3 (11732012_x_at) / RFU MBOAT4 (11741988_at) / Fold change /veh MBOAT4 (11741988_at) / RFU 11764193_at / Fold change /veh 11764193_at / RFU TMEM53 (11763286_at) / Fold change /veh TMEM53 (11763286_at) / RFU MAGEB2 (11727129_at) / Fold change /veh MAGEB2 (11727129_at) / RFU TMEM200A (11744735_a_at) / Fold change /veh TMEM200A (11744735_a_at) / RFU CCDC152 (11751479_a_at) / Fold change /veh CCDC152 (11751479_a_at) / RFU FAM211A (11726209_a_at) / Fold change /veh FAM211A (11726209_a_at) / RFU RGS16 (11746705_a_at) / Fold change /veh RGS16 (11746705_a_at) / RFU VCAN (11755009_s_at) / Fold change /veh VCAN (11755009_s_at) / RFU RHOB (11743442_s_at) / Fold change /veh RHOB (11743442_s_at) / RFU RGS16 (11720943_a_at) / Fold change /veh RGS16 (11720943_a_at) / RFU RGS16 (11720944_at) / Fold change /veh RGS16 (11720944_at) / RFU, VPS4B / Fold change vs veh, VPS4B / RFU, CREB1 / Fold change vs veh, CREB1 / RFU, DNAJC13 / Fold change vs veh, DNAJC13 / RFU, GNAQ / Fold change vs veh, GNAQ / RFU, CDK5R1 / Fold change vs veh, CDK5R1 / RFU, ZRANB3 / Fold change vs veh, ZRANB3 / RFU, CUL4A / Fold change vs veh, CUL4A / RFU, CCNY / Fold change vs veh, CCNY / RFU, UFL1 / Fold change vs veh, UFL1 / RFU, COG3 / Fold change vs veh, COG3 / RFU, DIAPH2 / Fold change vs veh, DIAPH2 / RFU, SKA2 / Fold change vs veh, SKA2 / RFU, AFF3 / Fold change vs veh, AFF3 / RFU, LMF1 / Fold change vs veh, LMF1 / RFU, IPO11 / Fold change vs veh, IPO11 / RFU, DFFB / Fold change vs veh, DFFB / RFU, FOXP1 / Fold change vs veh, FOXP1 / RFU, CARD8 / Fold change vs veh, CARD8 / RFU, STRN3 / Fold change vs veh, STRN3 / RFU, ADK / Fold change vs veh, ADK / RFU, RASSF2 / Fold change vs veh, RASSF2 / RFU, WIPF1 / Fold change vs veh, WIPF1 / RFU, LARP1B / Fold change vs veh, LARP1B / RFU, RASA1 / Fold change vs veh, RASA1 / RFU, RB1 / Fold change vs veh, RB1 / RFU, PPFIA1 / Fold change vs veh, PPFIA1 / RFU, MAT2A / Fold change vs veh, MAT2A / RFU, CCT5 / Fold change vs veh, CCT5 / RFU, WDR92 / Fold change vs veh, WDR92 / RFU, CUX1 / Fold change vs veh, CUX1 / RFU, TTC7A / Fold change vs veh, TTC7A / RFU, TMEM135 / Fold change vs veh, TMEM135 / RFU, DEPTOR / Fold change vs veh, DEPTOR / RFU, CPM / Fold change vs veh, CPM / RFU, DNAJB6 / Fold change vs veh, DNAJB6 / RFU, CACNA2D3 / Fold change vs veh, CACNA2D3 / RFU, DTX4 / Fold change vs veh, DTX4 / RFU, TFCP2 / Fold change vs veh, TFCP2 / RFU, GMCL1 /// GMCL1P1 / Fold change vs veh, GMCL1 /// GMCL1P1 / RFU, AEBP2 / Fold change vs veh, AEBP2 / RFU, SNHG1 /// SNORD22 /// SNORD25 /// SNORD26 /// SNORD27 /// SNORD28 /// SNORD29 /// SNORD31 / Fold change vs veh, SNHG1 /// SNORD22 /// SNORD25 /// SNORD26 /// SNORD27 /// SNORD28 /// SNORD29 /// SNORD31 / Fold change (Aza/veh), C12orf56 (ProbeSet 11735607_a_at) / Fold change (ACY-1035/veh), C12orf56 (ProbeSet 11735607_a_at) / Fold change (Aza/veh), FGFR1OP (ProbeSet 11751329_s_at) / Fold change (ACY-1035/veh), FGFR1OP (ProbeSet 11751329_s_at) / Fold change (Aza/veh), VPS36 (ProbeSet 11739960_a_at) / Fold change (ACY-1035/veh), VPS36 (ProbeSet 11739960_a_at) / RFU SYPL1 (11715823_x_at) / Fold change /veh SYPL1 (11715823_x_at) / RFU IGFBP7 (11715501_s_at) / Fold change /veh IGFBP7 (11715501_s_at) / RFU REEP3 (11722064_at) / Fold change /veh REEP3 (11722064_at) / RFU IGLL1 (11728026_x_at) / Fold change /veh IGLL1 (11728026_x_at): dose or concentration left out as unconfirmed
# Settings: ProbeSet 11725141_a_at; LIST B
smiles,measurement,value
Nc1ccc(-c2cccs2)cc1NC(=O)c1ccc2c(c1)cc(C1CC1)n2CCN1CCOCC1 [ACY-1035],"Fold change vs veh, FUBP3",0.87
